Reference: US7910692B2, “Immunogenic peptides and methods of use” (The United States of America as represented by the …, priority 2006, dated 2011)

Tests used:
HLA-A2 molecules = target: T1, HLA-A2 molecules (Homo sapiens, UniProt P04439, D140Y/D185E/D98H/E176V/E277Q/G131W/G231S/I119V/I121R/I166T/I218V/L300P/L318F/N151K/N90K/P208A/P217A/Q86G/Q94H/R138H/R169H/T345S); assay: Peptide binding to HLA-A2: upregulation of HLA-A2 expression on T2 cells, flow cytometry; settings: for T2 binding, mean fluorescence intensity: T2 cells; for binding to HLA-A2 compared with native peptides: all concentrations, 0 to 25 μg/ml (FIG. 1A)
T1 construct: expressed in transfected cells; host or cells: T2 cells (provided by Dr. Peter Cresswell)
Procedure: The primary amino acid sequence of human PAGE4 was analyzed for consensus motifs for novel HLA-A2 binding peptides. Two 10-mer peptides (P16-25 designated as P16 and P59-68 designated as P59) and one 9-mer peptide (P84-92 designated as P84) were identified and evaluated (Table 1). […] For this reason, five different analogues of native peptides were synthesized and were investigated for their binding ability to HLA-A2-positive T2 cells along with the native P16, P59 and P84 peptides. A MUC-1 peptide and a CEA HLA-A3 binding peptide (CAP-7) were used as a positive and negative control, respectively (Tsang et al., J Natl Cancer Inst 1995; 87:982-90).

peptide-HLA-A2 complexes = target: T2, peptide-HLA-A2 complexes (Homo sapiens, UniProt P04439, D140Y/D185E/D98H/E176V/E277Q/G131W/G231S/I119V/I121R/I166T/I218V/L300P/L318F/N151K/N90K/P208A/P217A/Q86G/Q94H/R138H/R169H/T345S); assay: Stability of peptide-HLA-A2 complexes on T2 cells after brefeldin A block; assay type: binding; settings: 8-hour observation period; 12.5 μg/ml (FIG. 1B)
T2 construct: expressed in transfected cells; host or cells: T2 cells (provided by Dr. Peter Cresswell)
Procedure: FIGS. 1A and 1B are line graphs showing the binding of native PAGE4 peptides and their agonist peptides to HLA-A2 molecules. Peptides were analyzed for binding to T2 cell line as described in Example 1. For the results presented in FIG. 1A, peptides were used at concentrations of 0 to 25 μg/ml. P16 peptide (∘), P16-1 (●), P16-2 (▴), P84 (□) and P84-1 (▪), positive control (MUC-1 peptide) (+) and negative control (HLA-A3 binding peptide) (X). Results are expressed in mean fluorescence intensity (MFI). FIG. 1B presents a comparison of the stability of HLA-A2 peptide complexes of PAGE4 native and agonist peptides. T2 cells were incubated overnight with P16 peptide (∘), P16-1 (●), P16-2 (▴), P84 (□) and P84-1 (▪) peptides at a concentration of 12.5 μg/ml and then were washed free of unbound peptide and incubated with brefeldin A to block delivery of new class 1 molecules to the cell surface. At the indicated times, cells were stained for the presence of surface peptide-HLA-A2 complexes. Results are expressed in relative percentage of binding compared with 100% at time 0.
The analogues of P16 were designated P16-1 and P16-2, and the analogue of P84 was designated as P84-1. These peptides bound to HLA-A2 at higher levels than their native peptides. Studies were then conducted to examine the ability of these peptides to bind HLA-A2 at various concentrations. […] Studies were then undertaken to examine the stability of the peptide-MHC complex for the peptides P16, P84, P16-1, P16-2 and P84-1. Each peptide was incubated with T2 cells overnight, the unbound peptides were washed off, and the cells were then incubated with Brefeldin A to block delivery of new class I molecules to the cell surface. Cells were analyzed for the presence of peptide-HLA-A2 complexes at various time points.

T-A-P16 cells = assay: Cytokine production by T-A-P16 cells stimulated with native and agonist P16 peptides (FIG. 2); assay type: cell-based, human; settings: vs native P16 or P16-2 peptide; 12.5 ul/ml; effector-to-APC 1:3; 24-hour supernatants (FIG. 2)
Procedure: FIG. 2 is a set for bar graphs illustrating the ability of autologous B cells pulsed with native and agonist P16 peptides to induce IFN-γ, Lymphotactin, Granzyme B, TNF-α and IL-2 production by T cell line derived from the native peptide (T-A-P16). T-A-P16 cells were used as effectors at in vitro stimulation (IVS-4). T cells were stimulated with irradiated autologous B cells pulsed with different PAGE4 analogues at a concentration of 12.5 ul/ml, and an effector-to-APC ratio of 1:3. Twenty-four-hour culture supernatants were collected and screened for the secretion of IFN-γ, Lymphotactin, Granzyme B, TNF-α and IL-2 using ELISA assay.
Detection of Cytokines: Supernatants of T cells stimulated for […] with peptide-pulsed autologous EBV-transformed B cells, in IL-2-free medium at various peptide concentrations, were screened for secretion of IFN-γ using an ELISA kit (BioSource International, Camarillo, Calif.) and lymphotactin using an ELISA assay (36). Granzyme B, TNF-α and IL-2 were determined by using a Cytokines and Chemokines-Multiplex Kit (Meso Scale Discovery, Geitherburg, Md.). The results were expressed in pg/ml.
Studies were then undertaken to examine the ability of the P16, P16-1, P16-2 peptides to activate the T-A-P16 cells, which were generated with the P16 native peptide. […] The P16-1 agonist was thus chosen for further study.

LNCaP cells = assay: Cold target inhibition assay; assay type: cell-based, human; settings: peptide-pulsed (12.5 μg/ml) unlabeled T2 cells; LNCaP:T2 1:10; E:T 15:1 (FIG. 5A)
Procedure: For the results presented in FIG. 5A, ^111In labeled LNCaP cells and unlabeled T2 cells were used at a ratio of 1:10. T2 cells were incubated with or without P16-1 peptide (12.5 μg/ml) in serum-free medium for 2 hours at 37° C. prior to the addition of the T-A-P16-1 cells. For the results presented in FIG. 5B, anti-HLA-A2 antibody (10 μg/ml and 50 μg/ml) or 110 μg/ml of control IgG antibody were added to ^111In labeled LNCaP cells for 1 hour at 37° C. prior to the addition of the T-A-P16-1 cells. Results are expressed in percent specific lysis at effector-to-target ratio of 15:1. Bars=SD. Statistically significant (P<0.05, two tailed t test).
To confirm the specificity and HLA-A2 restriction of CTL cytolysis, LNCaP cells were used as target in a cold target inhibition assay. […] Moreover, to determine whether the lysis was HLA-A2 restricted, antibody blocking experiments were carried out.

T-B-P16-1 cells = assay: CD107a mobilization assay; assay type: cell-based, human; settings: T-B-P16-1 cells with T2 cells pulsed with 12.5 μg/ml peptide; 5 hours (FIG. 3)
Procedure: The expression of CD107a on the cell surface of CD8+ T cells and correlation with cytotoxic activity by PAGE4-specific T-cell line (T-B-P16-1) against P16-1 or P16 pulsed T2 cells. 0.5×10^6 effector cells/ml were incubated (FIG. 3a) alone, (FIG. 3b) with T2 cells without peptide, (FIG. 3c) with T2 cells pulsed with 12.5 μg/ml of P16 peptide, or (FIG. 3d) with T2 cells pulsed with 12.5 μg/ml of P16-1 peptide. Results are expressed in % of CD107a positive and CD8 positive cells. Numbers of the upper right are % of specific lysis±SD.
CD107a mobilization assay: The CD107a mobilization assay was performed as previously described (Rubio et al., Nat Med 2003; 9:1377-82). […] Samples were then fixed and the expression of CD107a on the cell surface of CD8^+ T cells was analyzed by flow cytometry.
In order to determine CTL degranulation which is a requisite process of perforin-granzyme mediated killing by activated CD8+ T cells, CD107a mobilization to the cell surface of CD8+ T cells was examined following activation with P16 or P16-1 peptides in addition to CTL assays. T-B-P16-1 cells were incubated with P16 native or P16-1 agonist peptide-pulsed T2 cells for 5 hours in the presence of monensin and analyzed for CD107a mobilization by flow cytometric analysis (FIG. 3). […]

T2 cells = assay: 111In release assay: lysis of peptide-pulsed T2 targets by PAGE4-specific T-cell lines; assay type: cell-based; settings: for % lysis (±SD) by T-A-P16 / % lysis (±SD) by T-B-P16-1: 16-hour 111In release, peptide 12.5 μg/ml, IVS4
Procedure: Cytotoxic Assay: Cytotoxicity assays were used as described previously (Tsange et al., J Natl Cancer Inst 1995; 87:982-90). A 6-hour or 16-hour ^111In release assay was used to determine T-cell mediated killing. Target cells were labeled with ^111In oxine (Amersham Health, Silver Spring, Md.) for 20 min at room temperature, and used at 3×10^3 cells per well, in 96-well rounded-bottom culture plates. ^111In released was measured by gamma counting. Spontaneous release was determined by incubating the target cells with medium alone, and complete lysis by incubating the target cells with 2.5% Triton X-100. Specific lysis (%)=[(observed release−spontaneous release)/(complete release−spontaneous release)]×100.
To examine the ability of the P16 and P16-1 peptides to activate the PAGE4-specific T-cells, T-A-P16 cells were subsequently analyzed for the ability to lyse peptide-pulsed targets.

Question: For “HLFGYSWYK [CAP-7 peptide, reference compound]”, which “T2 binding, mean fluorescence intensity” value (HLA-A2 molecules; peptide 25 μg/ml) is on record?
Answer: 260 MFI

Question: Which results are given for “KTPPNPKHA (XXPPNPKHX; (16)..(16) Xaa can be Gln or Tyr; listed as Homo sapiens) [Peptide P84]”?
Answer: binding of native peptides to HLA-A2 molecules in the T2 assay (HLA-A2 molecules; T2 assay): bound to HLA-A2 molecules; T2 binding, mean fluorescence intensity (HLA-A2 molecules; peptide 25 μg/ml): 270 MFI; T2 binding, fold increase as compared with the negative control (HLA-A2 molecules; peptide 25 μg/ml, vs CAP-7 negative control): 1.04 fold

Question: With “P16-1: agonist analogue of P16; amino acids 16 to 25 of SEQ ID NO: 1, X1 glutamine, X2 leucine (QLAPDVVAFV; (16)..(16) Xaa can be Gln or Tyr; listed as Homo sapiens) [Peptide P16-1]” as the substance, how does the “stability of peptide-HLA-A2 complexes compared with native peptide complexes” value (peptide-HLA-A2 complexes) read?
Answer: greater

Question: And the “IFN-γ, lymphotactin, Granzyme B, TNF-α and IL-2 production by T-A-P16 cells” value (T-A-P16 cells)?
Answer: higher levels

Question: What about the “binding to HLA-A2 compared with native peptides” value (HLA-A2 molecules) of the same substance?
Answer: higher levels

Question: And the “decrease in CTL activity of T-A-P16-1 cells against labeled LNCaP cells” value (LNCaP cells)?
Answer: 79.6%

Question: And the “CD8+ T cells expressing surface CD107a compared with P16 native peptide” value (T-B-P16-1 cells)?
Answer: Higher number

Question: What about the “% lysis (±SD) by T-A-P16” value (T2 cells; effector T-A-P16, E:T 15:1) of the same substance?
Answer: 16.7 (0.9) %

Question: And the “% lysis (±SD) by T-A-P16” value (T2 cells; effector T-A-P16, E:T 30:1)?
Answer: 20.4 (1.9) %

Question: And the “lysis of peptide-pulsed T2 cells by T-A-P16 compared with P16-pulsed T2 cells” value (T2 cells; effector T-A-P16, two E:T ratios)?
Answer: higher

Question: And the “% lysis (±SD) by T-B-P16-1” value (T2 cells; effector T-B-P16-1, E:T 15:1)?
Answer: 25.8 (0.6) %

Question: What about the “% lysis (±SD) by T-B-P16-1” value (T2 cells; effector T-B-P16-1, E:T 30:1) of the same substance?
Answer: 34.7 (0.04) %

Question: And the “lysis of peptide-pulsed T2 cells by T-B-P16-1 compared with P16-pulsed T2 cells” value (T2 cells; effector T-B-P16-1, two E:T ratios)?
Answer: to a greater extent

Question: Which “stability of peptide-HLA-A2 complexes compared with native peptide complexes” value (peptide-HLA-A2 complexes) does the source give for “P16-2: analogue of P16; amino acids 16 to 25 of SEQ ID NO: 1, X1 tyrosine, X2 leucine (YLAPDVVAFV; (16)..(16) Xaa can be Gln or Tyr; listed as Homo sapiens) [Peptide P16-2]” here?
Answer: more stable

Question: And the “binding to HLA-A2 compared with native peptides” value (HLA-A2 molecules)?
Answer: higher levels

Question: Which “stability of peptide-HLA-A2 complexes compared with native peptide complexes” value (peptide-HLA-A2 complexes) does the source give for “P84-1: analogue of P84; amino acids 84-92 of SEQ ID NO: 1, X6 tyrosine, X7 leucine, X8 valine (YLPPNPKHV; (16)..(16) Xaa can be Gln or Tyr; listed as Homo sapiens) [Peptide P84-1]” here?
Answer: more stable

Question: What about the “binding to HLA-A2 compared with native peptides” value (HLA-A2 molecules) of the same substance?
Answer: higher levels
